# Source: patent US12077503B2, “Substituted cyclic amides and their use as herbicides” (FMC CORPORATION, priority 2015, dated 2024)
# Legend:
# Format in all cases: in vivo
# [1] = test system: sedge, umbrella (small-flower umbrella sedge, Cyperus difformis); assay: Test B flooded paddy test; conditions: Flood, 250 g ai/ha; 0 to 100 scale where 0 is no effect and 100 is complete control; 13 to 15 d
# Procedure, shortened: (§1)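 Evaluation by eye, against controls, occurred 13–15 d post-treatment in a greenhouse, using a 0 (no effect) to 100 (complete control) scale. Application was into the paddy water, 3 cm deep over the soil, on 2-leaf plants.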
# rice (Oryra sativa) = assay: Test B flooded paddy test; conditions: Flood, 250 g ai/ha; 0 to 100 scale where 0 is no effect and 100 is complete control; 13 to 15 d
# Procedure, shortened: as §1
# [2] = test system: ducksalad (Heteranthera limosa); assay: Test B flooded paddy test; conditions: Flood, 250 g ai/ha; 0 to 100 scale where 0 is no effect and 100 is complete control; 13 to 15 d
# Procedure, shortened: as §1
# [3] = test system: barnyardgrass (Echinochloa crus-galli); assay: Test B flooded paddy test; conditions: Flood, 250 g ai/ha; 0 to 100 scale where 0 is no effect and 100 is complete control; 13 to 15 d
# Procedure, shortened: as §1
# Kochia (Kochia scoparia) [4] = assay: Test A preemergence
# Procedure, shortened: (§2)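 Seeds sprayed preemergence with a directed soil spray, or plants at 2 to 10 cm height and one- to two-leaf stage sprayed postemergence, with test chemicals in a non-phytotoxic solvent mixture containing surfactant, in loam soil–sand blend. Injury rated visually against untreated controls after about 10 d in greenhouse, 0 (no effect) to 100 (complete control).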
# [5] = test system: giant foxtail (Setaria faberii); assay: Test A preemergence
# Procedure, shortened: as §2
# [6] = test system: ragweed (common ragweed, Ambrosia elatior); assay: Test A preemergence
# Procedure, shortened: as §2
# [7] = test system: ryegrass, Italian (Italian ryegrass, Lolium multiflorum); assay: Test A preemergence
# Procedure, shortened: as §2
# [8] = test system: pigweed (Amaranthus retroflexus); assay: Test A preemergence
# [9] = test system: barnyardgrass (Echinochloa crus-galli); assay: Test A preemergence
# Procedure, shortened: as §2
# [10] = test system: sedge, umbrella (small-flower umbrella sedge, Cyperus difformis); assay: Test C flooded paddy test; conditions: Flood; for Plant response rating (scale of 0 to 100), Sedge, Umbrella: 0 is no effect, 100 is complete control
# Procedure, shortened: (§3)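 Rice, small-flower umbrella sedge, ducksalad and barnyardgrass at the 2-leaf stage were flooded to 3 cm, and compound was applied into the paddy water. After 13 to 15 d in a greenhouse, plants were rated visually against controls on a 0 (no effect) to 100 (complete control) scale.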
# [11] = test system: ducksalad (Heteranthera limosa); assay: Test C flooded paddy test; conditions: Flood; for Plant response rating (scale of 0 to 100), Ducksalad: 0 is no effect, 100 is complete control
# Procedure, shortened: as §3
# rice (Oryza sativa) = assay: Test C flooded paddy test; conditions: Flood; for Plant response rating (scale of 0 to 100), Rice: 0 is no effect, 100 is complete control
# Procedure, shortened: as §3
# [12] = test system: barnyardgrass (Echinochloa crus-galli); assay: Test C flooded paddy test; conditions: Flood; for Plant response rating (scale of 0 to 100), Barnyardgrass: 0 is no effect, 100 is complete control
# Procedure, shortened: as §3
# [13] = test system: wheat (Triticum aestivum); assay: Test A postemergence
# Procedure, shortened: as §2
# Kochia (Kochia scoparia) [14] = assay: Test A postemergence
# Procedure, shortened: as §2
# [15] = test system: giant foxtail (Setaria faberii); assay: Test A postemergence
# Procedure, shortened: as §2
# [16] = test system: ragweed (common ragweed, Ambrosia elatior); assay: Test A postemergence
# Procedure, shortened: as §2
# [17] = test system: blackgrass (Alopecurus myosuroides); assay: Test A postemergence
# Procedure, shortened: as §2
# corn (Zea mays) = assay: Test A postemergence
# Procedure, shortened: as §2
# [18] = test system: ryegrass, Italian (Italian ryegrass, Lolium multiflorum); assay: Test A postemergence
# Procedure, shortened: as §2
# [19] = test system: Galium (catchweed bedstraw, Galium aparine); assay: Test A postemergence
# Procedure, shortened: as §2
# [20] = test system: pigweed (Amaranthus retroflexus); assay: Test A postemergence
# Procedure, shortened: as §2
# [21] = test system: barnyardgrass (Echinochloa crus-galli); assay: Test A postemergence
# Procedure, shortened: as §2
# [22] = 125 g ai/ha, Preemergence, visual injury after approximately 10 d, 0 to 100 scale where 0 is no effect and 100 is complete control
# [23] = 500 g ai/ha, preemergence, 0 to 100 scale, 0 = no effect, 100 = complete control
# [24] = 31 g ai/ha, scale 0 to 100 (0 no effect, 100 complete control), 13 to 15 d
# [25] = 125 g ai/ha, postemergence, visual rating after approx. 10 d, 0 to 100 scale (0 no effect, 100 complete control)
# [26] = 500 g ai/ha, postemergence, visual injury, 0 to 100 scale (0 no effect, 100 complete control), approx. 10 d
# [27] = Preemergence, 500 g ai/ha, visual injury approx. 10 d
# [28] = 125 g ai/ha, postemergence, visual injury rating on 0 to 100 scale (0 no effect, 100 complete control), approx. 10 d
# [29] = Postemergence, 500 g ai/ha, 0 to 100 scale where 0 is no effect and 100 is complete control
structure (smiles),measurement,setting,value
Cc1ccc(C2CN(C)C(=O)C2C(=O)Nc2ccc(F)cc2F)cc1 (centres unmarked) [Compound 664],"Plant response rating, Sedge, Umbrella",[1],0
same,"Plant response rating, Rice",rice (Oryra sativa),0
same,"Plant response rating, Ducksalad",[2],100
same,"Plant response rating, Barnyardgrass",[3],85
same,"Plant response rating, Kochia",Kochia (Kochia scoparia) [4]; [22],70
same,"Plant response rating, Kochia",Kochia (Kochia scoparia) [4]; [23],70
same,"Plant response rating, Foxtail, Giant",[5]; [22],90
same,"Plant response rating, Foxtail, Giant",[5]; [23],100
same,"Plant response rating, Ragweed",[6]; [22],20
same,"Plant response rating, Ragweed",[6]; [23],80
same,"Plant response rating, Ryegrass, Italian",[7]; [22],20
same,"Plant response rating, Ryegrass, Italian",[7]; [23],80
same,"Plant response rating, Pigweed",[8]; [22],60
same,"Plant response rating, Pigweed",[8]; [23],60
same,"Plant response rating, Barnyardgrass",[9]; [22],90
same,"Plant response rating, Barnyardgrass",[9]; [23],90
same,"Plant response rating, Sedge, Umbrella",[10]; [24],0
same,"Plant response rating (scale of 0 to 100), Sedge, Umbrella",[10]; 62 g ai/ha,0
same,"Plant response rating (scale of 0 to 100), Sedge, Umbrella",[10]; 125 g ai/ha,0
same,"Plant response rating (scale of 0 to 100), Sedge, Umbrella",[10]; 250 g ai/ha,0
same,"Plant response rating, Ducksalad",[11]; [24],45
same,"Plant response rating (scale of 0 to 100), Ducksalad",[11]; 62 g ai/ha,70
same,"Plant response rating (scale of 0 to 100), Ducksalad",[11]; 125 g ai/ha,85
same,"Plant response rating (scale of 0 to 100), Ducksalad",[11]; 250 g ai/ha,100
same,"Plant response rating, Rice",rice (Oryza sativa); [24],0
same,"Plant response rating (scale of 0 to 100), Rice",rice (Oryza sativa); 62 g ai/ha,0
same,"Plant response rating (scale of 0 to 100), Rice",rice (Oryza sativa); 125 g ai/ha,0
same,"Plant response rating (scale of 0 to 100), Rice",rice (Oryza sativa); 250 g ai/ha,0
same,"Plant response rating, Barnyardgrass",[12]; [24],0
same,"Plant response rating (scale of 0 to 100), Barnyardgrass",[12]; 62 g ai/ha,65
same,"Plant response rating (scale of 0 to 100), Barnyardgrass",[12]; 125 g ai/ha,70
same,"Plant response rating (scale of 0 to 100), Barnyardgrass",[12]; 250 g ai/ha,70
same,"Plant response rating, Wheat",[13]; [25],50
same,"Plant response rating, Wheat",[13]; [26],70
same,"Plant response rating, Kochia",Kochia (Kochia scoparia) [14]; [25],60
same,"Plant response rating, Kochia",Kochia (Kochia scoparia) [14]; [26],70
same,"Plant response rating, Foxtail, Giant",[15]; [25],90
same,"Plant response rating, Foxtail, Giant",[15]; [26],90
same,"Plant response rating, Ragweed",[16]; [25],10
same,"Plant response rating, Ragweed",[16]; [26],20
same,"Plant response rating, Blackgrass",[17]; [25],50
same,"Plant response rating, Blackgrass",[17]; [26],60
same,"Plant response rating, Corn",corn (Zea mays); [25],50
same,"Plant response rating, Corn",corn (Zea mays); [26],90
same,"Plant response rating, Ryegrass, Italian",[18]; [25],30
same,"Plant response rating, Ryegrass, Italian",[18]; [26],70
same,"Plant response rating, Galium",[19]; [25],50
same,"Plant response rating, Galium",[19]; [26],60
same,"Plant response rating, Pigweed",[20]; [25],20
same,"Plant response rating, Pigweed",[20]; [26],20
same,"Plant response rating, Barnyardgrass",[21]; [25],90
same,"Plant response rating, Barnyardgrass",[21]; [26],90
O=C1NCC(c2cccc(F)c2F)C1C(=O)Nc1cccc(F)c1F (centres unmarked) [Compound 487],"Plant response rating, Sedge, Umbrella",[1],0
same,"Plant response rating, Rice",rice (Oryra sativa),0
same,"Plant response rating, Ducksalad",[2],95
same,"Plant response rating, Barnyardgrass",[3],75
same,"Plant response rating, Kochia",Kochia (Kochia scoparia) [4]; [22],30
same,"Kochia plant response rating (0 to 100 scale, 0 is no effect, 100 is complete control)",Kochia (Kochia scoparia) [4]; [27],60
same,"Plant response rating, Foxtail, Giant",[5]; [22],90
same,"Foxtail, Giant plant response rating (0 to 100 scale, 0 is no effect, 100 is complete control)",[5]; [27],90
same,"Plant response rating, Ragweed",[6]; [22],30
same,"Ragweed plant response rating (0 to 100 scale, 0 is no effect, 100 is complete control)",[6]; [27],30
same,"Plant response rating, Ryegrass, Italian",[7]; [22],20
same,"Ryegrass, Italian plant response rating (0 to 100 scale, 0 is no effect, 100 is complete control)",[7]; [27],40
same,"Plant response rating, Pigweed",[8]; [22],0
same,"Pigweed plant response rating (0 to 100 scale, 0 is no effect, 100 is complete control)",[8]; [27],30
same,"Plant response rating, Barnyardgrass",[9]; [22],90
same,"Barnyardgrass plant response rating (0 to 100 scale, 0 is no effect, 100 is complete control)",[9]; [27],90
same,"Plant response rating (scale of 0 to 100), Sedge, Umbrella",[10]; 31 g ai/ha,0
same,"Plant response rating (scale of 0 to 100), Sedge, Umbrella",[10]; 62 g ai/ha,0
same,"Plant response rating (scale of 0 to 100), Sedge, Umbrella",[10]; 125 g ai/ha,0
same,"Plant response rating (scale of 0 to 100), Sedge, Umbrella",[10]; 250 g ai/ha,0
same,"Plant response rating (scale of 0 to 100), Ducksalad",[11]; 31 g ai/ha,30
same,"Plant response rating (scale of 0 to 100), Ducksalad",[11]; 62 g ai/ha,45
same,"Plant response rating (scale of 0 to 100), Ducksalad",[11]; 125 g ai/ha,85
same,"Plant response rating (scale of 0 to 100), Ducksalad",[11]; 250 g ai/ha,100
same,"Plant response rating (scale of 0 to 100), Rice",rice (Oryza sativa); 31 g ai/ha,0
same,"Plant response rating (scale of 0 to 100), Rice",rice (Oryza sativa); 62 g ai/ha,0
same,"Plant response rating (scale of 0 to 100), Rice",rice (Oryza sativa); 125 g ai/ha,0
same,"Plant response rating (scale of 0 to 100), Rice",rice (Oryza sativa); 250 g ai/ha,0
same,"Plant response rating (scale of 0 to 100), Barnyardgrass",[12]; 31 g ai/ha,0
same,"Plant response rating (scale of 0 to 100), Barnyardgrass",[12]; 62 g ai/ha,15
same,"Plant response rating (scale of 0 to 100), Barnyardgrass",[12]; 125 g ai/ha,20
same,"Plant response rating (scale of 0 to 100), Barnyardgrass",[12]; 250 g ai/ha,65
same,Wheat plant response rating,[13]; [28],0
same,"Plant response rating, Wheat",[13]; [29],20
same,Kochia plant response rating,Kochia (Kochia scoparia) [14]; [28],0
same,"Plant response rating, Kochia",Kochia (Kochia scoparia) [14]; [29],30
same,"Foxtail, Giant plant response rating",[15]; [28],80
same,"Plant response rating, Foxtail, Giant",[15]; [29],90
same,Ragweed plant response rating,[16]; [28],0
same,"Plant response rating, Ragweed",[16]; [29],0
same,Blackgrass plant response rating,[17]; [28],0
same,"Plant response rating, Blackgrass",[17]; [29],30
same,Corn plant response rating,corn (Zea mays); [28],0
same,"Plant response rating, Corn",corn (Zea mays); [29],20
same,"Ryegrass, Italian plant response rating",[18]; [28],0
same,"Plant response rating, Ryegrass, Italian",[18]; [29],20
same,Galium plant response rating,[19]; [28],0
same,"Plant response rating, Galium",[19]; [29],0
same,Pigweed plant response rating,[20]; [28],0
same,"Plant response rating, Pigweed",[20]; [29],20
same,Barnyardgrass plant response rating,[21]; [28],80
same,"Plant response rating, Barnyardgrass",[21]; [29],90
